Patent EP2065382A1, “CGRP antagonists” (Boehringer Ingelheim Pharma GmbH & Co. KG, priority 2007, dated 2009)
pKi: −log10 of the molar value. Where two headings read alike, the source gives them in different places.

Target: T1, humanen CGRP-Rezeptor (Homo sapiens, UniProt O60894+Q16602)
T1 construct: SK-N-MC-Zellen werden in "Dulbecco's modified Eagle Medium" kultiviert; endogenous in cells; host or cells: SK-N-MC cells (membrane homogenate)
Assay: Binding studies with SK-N-MC cells expressing the human CGRP receptor (125I-CGRP displacement on membrane homogenate)
Details: 50 pM 125I-Iodotyrosyl-CGRP, 180 min at room temperature
Experimental: A. Bindungsstudien mit (den humanen CGRP-Rezeptor exprimierenden) SK-N-MC-Zellen
SK-N-MC-Zellen werden in "Dulbecco's modified Eagle Medium" kultiviert. Das Medium konfluenter Kulturen wird entfernt. Die Zellen werden zweimal mit PBS-Puffer (Gibco 041-04190 M) gewaschen, durch Zugabe von PBS-Puffer, versetzt mit 0.02% EDTA, abgelöst und durch Zentrifugation isoliert. Nach Resuspension in 20 ml "Balanced Salts Solution" [BSS (in mM): NaCl 120, KCl 5.4, NaHCO3 16.2, MgSO4 0.8, NaHPO4 1.0, CaCl2 1.8, D-Glucose 5.5, HEPES 30, pH 7.40] werden die Zellen zweimal bei 100 x g zentrifugiert und in BSS resuspendiert. Nach Bestimmung der Zellzahl werden die Zellen mit Hilfe eines Ultra-Turrax homogenisiert und für 10 Minuten bei 3000 x g zentrifugiert. Der Überstand wird verworfen und das Pellet in Tris-Puffer (10 mM Tris, 50 mM NaCl, 5 mM MgCl2, 1 mM EDTA, pH 7.40), angereichert mit 1% Rinderserum-Albumin und 0.1% Bacitracin, rezentrifugiert und resuspendiert (1 ml / 1000000 Zellen). Das Homogenat wird bei -80°C eingefroren. Die Membranpräparationen sind bei diesen Bedingungen für mehr als 6 Wochen stabil.
Nach Auftauen wird das Homogenat 1:10 mit Assay-Puffer (50 mM Tris, 150 mM NaCl, 5 mM MgCl2, 1 mM EDTA, pH 7.40) verdünnt und 30 Sekunden lang mit einem Ultra-Turrax homogenisiert. 230 µl des Homogenats werden für 180 Minuten bei Raumtemperatur mit 50 pM ^125I-Iodotyrosyl-Calcitonin-Gene-Related Peptide (Amersham) und ansteigenden Konzentrationen der Testsubstanzen in einem Gesamtvolumen von 250 µl inkubiert. Die Inkubation wird durch rasche Filtration durch mit Polyethylenimin (0.1%) behandelte GF/B-Glasfaserfilter mittels eines Zellharvesters beendet. Die an Protein gebundene Radioaktivität wird mit Hilfe eines Gammacounters bestimmt. Als nichtspezifische Bindung wird die gebundene Radioaktivität nach Gegenwart von 1 µM humanem CGRP-alpha während der Inkubation definiert.
Die Analyse der Konzentrations-Bindungskurven erfolgt mit Hilfe einer computergestützten nichtlinearen Kurvenanpassung.

T1 sequence (Q16602 23-461): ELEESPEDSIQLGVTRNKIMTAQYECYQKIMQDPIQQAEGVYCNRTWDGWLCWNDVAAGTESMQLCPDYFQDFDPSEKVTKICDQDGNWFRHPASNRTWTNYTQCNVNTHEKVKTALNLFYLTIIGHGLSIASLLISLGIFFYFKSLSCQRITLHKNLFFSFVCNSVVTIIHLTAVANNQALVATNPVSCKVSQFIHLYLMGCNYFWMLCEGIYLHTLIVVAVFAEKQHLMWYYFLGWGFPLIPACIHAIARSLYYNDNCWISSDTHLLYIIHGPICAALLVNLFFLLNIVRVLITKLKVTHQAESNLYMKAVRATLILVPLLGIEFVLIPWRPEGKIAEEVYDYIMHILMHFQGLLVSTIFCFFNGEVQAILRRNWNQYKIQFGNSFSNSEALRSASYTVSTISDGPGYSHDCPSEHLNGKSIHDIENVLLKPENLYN
T1 sequence (O60894 27-148): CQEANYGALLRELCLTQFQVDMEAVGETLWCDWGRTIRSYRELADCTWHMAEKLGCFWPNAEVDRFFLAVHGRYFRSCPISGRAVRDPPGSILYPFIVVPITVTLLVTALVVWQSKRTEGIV

SMILES	pKi	pKi (read-out: Ki)
O=C(c1cc(N2CCC(n3c(=O)[nH]c4ncccc43)CC2)ncn1)c1c[nH]c2ccccc12 [(1)]	6.92	–
Cn1cc(C(=O)c2cc(N3CCC(n4c(=O)[nH]c5ncccc54)CC3)ncn2)c2ccccc21 [(2)]	–	8.30
COc1ccc2c(c1)CCN(C1CCN(c3cc(C(=O)c4cn(C)c5ccccc45)ncn3)CC1)C(=O)N2 [(4)]	8.40	–
Cn1cc(C(=O)c2cc(N3CCC(n4c(=O)[nH]c5ccccc54)CC3)ncn2)c2ccccc21 [(9)]	6.60	–
Cn1cc(C(=O)c2cc(N3CCC(n4cc(-c5ccccc5)[nH]c4=O)CC3)ncn2)c2ccccc21 [(14)]	8.22	–
Cn1cc(C(=O)c2cc(N3CCC(n4c(=O)[nH]c5ncccc54)CC3)ncn2)c2ccc(F)cc21 [(21)]	8.70	–
O=C(c1cc(N2CCC(n3c(=O)[nH]c4ncccc43)CC2)ncn1)c1cn(CCCN2CCCCC2)c2ccccc12 [(25)]	7.80	–
Cc1ccc2c(C(=O)c3cc(N4CCC(n5c(=O)[nH]c6ncccc65)CC4)ncn3)cn(C)c2c1 [(30)]	–	7.60
CN(C)CCCn1cc(C(=O)c2cc(N3CCC(n4c(=O)[nH]c5ncccc54)CC3)ncn2)c2ccccc21 [(42)]	8.22	–
